Assay results reported in article PMC6906394, “Radiomodifying action, Pharmacokinetic and Biodistribution of Ethyl 3, 4, 5-trihydroxybenzoate-Implication in development of radiomitigator” (Scientific Reports, 2019).
Read-outs that look alike come from different tables or passages of the source.

Key:
[1] = Plasma pharmacokinetics of GAE after single oral administration (HPLC, non-compartmental); assay type: in vivo, mice; details: 200 mg/kg b.wt oral; for Cmax / AUC(0-t) / Tmax / half-life / AUC: 200 mg/kg; for Kel: in 1/min; for AUC: read-out: AUC0-α (converted)
Procedure: The developed method was successfully employed to determine GAE concentration in mouse plasma and tissue samples after single oral administration of GAE at a single dose (200 mg/kg body weight) in GAE and Radiation + GAE (R + GAE) treated group. […] Pharmacokinetic parameter analysis is presented in (Table 2, Table 3).
(§1) Black C57BL/6 male mice weighing 28–30 g were maintained at the Institutional Animal Experimental Facility. Animals were fed according to standard chow diet having free access to food and water ad libitum. The environmental condition was maintained at room temperature (22 ± 2 °C), relative humidity (45–60%) and 12 h dark/light cycle controlled facility. In this study, mice were randomly assigned to four different groups (n = 21) i.e untreated control (UC), GAE-treated (GAE), Radiation + GAE (R + GAE), Radiation group (R). Mice fasted overnight with free access to water before being dosed. Isolated GAE from leaves was dissolved with distilled water and ethanol in (7:3 v/v) and administered orally at a dose of 200 mg/kg body weight to GAE-treated and R + GAE treated groups only. The experiment was carried out in accordance to regulation and guideline of the, Committee for the purpose of control and supervision of Experiments on animals (CPCSEA), and study was approved by Institutional Animal Experimental Committee (IAEC), Institute of Nuclear Medicine & Allied Science, Delhi, India.
(§2) Group I untreated control (UC), Group II GAE-treated (GAE), Group III Radiation + GAE (R + GAE) and Group IV Radiation (R) exposed. The GAE was administered orally 15 min post irradiation. The whole-body radiation (5 Gy) was carried out using Bhabahtron II, Telecobalt machine, Panacea medical technology, Bangalore. The mice exposed at a dose rate of 0.961 Gy/min at field 35 × 35 cm^2 and the distance maintained from the source was 80 cm.
Blood and tissues samples of mice were collected at 15 min, 30 min, 1 h, 2 h, 4 h, 8 h and 24 h after GAE administration (3mice per time). Blood was obtained from retro orbital plexus of mice and collected in heparinized eppendorf tubes, followed by centrifugation at 2500 g for 15 min. The resulting plasma layer was separated and stored in tubes at −20 °C for further analysis. Tissue samples (brain, heart, liver, kidney, and spleen) were weighed and put into the normal saline solution to remove the blood by blotting on filter paper and were minced and homogenized with physiological saline solution (1:2 w/v) thoroughly in an ice bath. The homogenates were stored at −80 °C until the analysis.
Aliquot of plasma sample (100 µL) dispensed in standing vial deproteinized with ACN (200 µL) containing the IS (100 ng/mL) and centrifuged at 2500 g for 15 min at 4 °C. The supernatant was collected transferred to a clean glass tube, reconstituted with 200 µL mobile phase vortexed mixed for 2 min and centrifuged at 2500 g for 5 min. Following this, a 20 µL aliquot of supernatant was injected into the HPLC system for analysis.
GAE was separated on the high-performance liquid chromatography (HPLC), SPD-10A consisting of binary HPLC pump, ultraviolet detector, and a Rheodyne manual injector equipped with a 20 µl loop (Shimadzu, Japan). Separation was achieved on Kinetex Biphenyl RP 100 Å column (2.6 µm, 150 × 4.6 mm) (Phenomenex, Torrance) installed with phenyl cartridges (Phenomenex, Torrance). The system was controlled using class VP software (Shimadzu, Japan). The chromatographic separation of GAE was in approximately within 10 min, at room temperature by using the isocratic mobile phase mixture of ACN and 1%OPA (30:70, v/v) with pH maintained at 3.3. 20 µL of the samples were injected at a flow rate of 0.5 mL/min and the wavelength 270 nm was used for detection. […]

[2] = tested on: whole body 60Co-gamma irradiated mice; assay: Liver and kidney function markers SGOT, SGPT, urea and creatinine after irradiation; assay type: in vivo
Procedure: as §1, §2
SGOT and SGPT are a biomarker of liver function test used to assess liver function and its damage; whereas, urea and creatinine were used to investigate kidney function and its damage. These biomarkers were analyzed in-vitro by the use of commercially available kits of agape, Kerala, India. The assay were performed according to standard procedure mention in the kit protocol. In-vitro SGOT quantitative determination were based on the reaction of L-aspartate with alpha-ketoglutarate. According to the manufacturer protocol reagent were mix and incubated for 1 minute at 37 °C. The changes in absorbance were recorded per minute during 3 minutes. In-vitro kinetic determination of SGPT were based on the reaction of L-alanine with alpha-ketoglutarate. The reagent were mixed and incubated for 1 minute at 37 °C. the changes in absorbance was recorded per minute during 3 minutes at 340 nm. Urea is in-vitro quantitative determine by the method of Talke et al., 1965. Creatinine were in-vitro determined by kits and it can be measured by quionone pigment photometrically. Reagent were mixed and incubated for 5 minute at 37 °C. the sample absorbance and the standard against the reagent blank were measured at 546 nm.

[3] = R + GAE group (60Co-γ 5 Gy, GAE 15 min post irradiation)
[4] = male, C57BL/6, mouse, po, GAE treated group
[5] = male, C57BL/6, mouse, po, R + GAE group (60Co-γ 5 Gy, GAE 15 min post irradiation)
[6] = R + GAE group (5 Gy, GAE 200 mg/kg oral 15 min post irradiation), 8 h
[7] = R + GAE group (5 Gy, GAE 200 mg/kg oral 15 min post irradiation), 24 h

In the case of `CCOC(=O)c1cc(O)c(O)c(O)c1` [GAE, Ethyl 3,4,5-trihydroxybenzoate], the Clearance ([1]; GAE treated group) is reported as 0.017 ± 0.0005 mL/min, the Cmax ([1]; GAE treated group) is reported as 4390.85 ± 285.20 ng/mL and the Kel ([1]; GAE treated group) is reported as 0.026 ± 0.003. It also gave a Clearance [1, 3] of 0.07 ± 0.01 mL/min, a Kel [1, 3] of 0.025 ± 0.02 and an AUC(0-t) [1, 4] of 2920 ng·h/mL. The Tmax [1, 4] was ~15 min, the half-life [1, 4] was 26.5 ± 3.2 min and the AUC [1, 4] was 2930 ng·h/mL. The Cmax ([1]; male, C57BL/6, mouse, po, GAE treated group, read-out: Cmax) was 4390 ± 285 ng/mL, the AUC(0-t) [1, 5] was 1070 ng·h/mL and the Tmax [1, 5] was ~15 min. It also gave a half-life [1, 5] of 22.4 ± 3.6 min, an AUC [1, 5] of 1070 ng·h/mL and a Cmax ([1]; male, C57BL/6, mouse, po, R + GAE group (60Co-γ 5 Gy, GAE 15 min post irradiation), read-out: Cmax) of 3390 ± 78.1 ng/mL. For the same compound, the “change of SGOT, SGPT, urea and creatinine in serum compared to irradiated animals not receiving GAE” value ([2]; GAE 200 mg/kg b.wt oral 15 min post 5 Gy irradiation, P < 0.05) was “significant reduction”, the SGOT level [2, 6] was 24.10 ± 2.4 U/L and the SGPT level [2, 6] was 36.01 ± 6.1 U/L. It also gave a urea level [2, 6] of 18.16 ± 0.003 mg/dL, an SGOT level [2, 7] of 63.11 ± 6.16 U/L and an SGPT level [2, 7] of 62.15 ± 8.63 U/L. The creatinine level ([2]; R + GAE group (5 Gy, GAE 200 mg/kg oral 15 min post irradiation), upto 8 h) was 1.05 ± 0.04 mg/dL and the “duration of radiomodifying action” value ([2]; post irradiation (5 Gy), liver and kidney function biomarkers, efficacy reduced at 24 h) was ≤ 8 h.
